Holding throughout (assay type): in vivo, mouse
Assay [1] deals with epidermal progenitor cells (EPC) of tail epidermis. Put plainly: Clone size distribution of EYFP-labelled epidermal progenitor cell clones after topical retinoid treatment, fitted to the model. On the procedure:
All animal experiments were conducted as specified by Home Office Project License. The generation of AhcreERT and R26EYFP/EYFP mice has been described previously^15,16. […] Epidermal wholemounts were prepared as described^14. For analysis of back epidermis, 60 μm cryosections were used.
(§1) Clone size was determined by Z stack confocal imaging of at least 50 clones containing at least one basal cell in each mouse at each time point. […] The percentage of Ki67 positive cells was determined by imaging at least 1500 basal cells in multiple fields from at least 3 mice.
(§2) All trans retinoic acid (Sigma) in ethanol, propanediol 70:30 was applied topically to tail skin and shaved back skin (0.5 ml each) 5 days a week for 3 months at 0.33 mM or daily for 2 weeks at 1 mM.
(§3) Two protocols were used: (1) Mice were induced and after a three month interval treated with either 0.33 mM all trans retinoic acid (ATRA) or vehicle alone for a further 3 months. (2) Mice were treated with 1 mM all trans retinoic acid (ATRA) or vehicle alone for 2 weeks, beginning immediately after induction.

The subject of assay [2] is basal cells of tail IFE. Put plainly: Proliferation rate of basal cells by Ki67 staining. The settings on record: ATRA treated mice, topical; controls 16.5+/-2.2%. As for the experimental part:
as §1, §2, §3

The test system of assay [3] is mitotic spindles of tail IFE. Put plainly: Analysis of mitotic spindle orientation in DAPI stained epidermal wholemounts. To be noted: ATRA treatment, topical (3 months per figure legend). As for the experimental part:
as §2, §3

From patent US8103455B2, “Method of assessing the proliferation or differentiation behaviour of a population of target cells in a biological system” (Medical Research Council, priority 2006, dated 2012) come the findings set out here.

Each structure is given as a SMILES string.

As for `CC1=C(/C=C/C(C)=C/C=C/C(C)=C/C(=O)O)C(C)(C)CCC1` [ATRA, all trans retinoic acid], the “AD (asymmetric division) rate from fit of model to two cell clone distribution” value in assay [1] (at two weeks, both protocols, unchanged from wildtype) was found to be 84%. Moreover, the clone size entry in assay [1] (both protocols: 0.33 mM for 3 months starting 3 months after induction, 1 mM for 2 weeks from induction, versus vehicle) is reported as “increase substantially”. Also, in assay [1] (fit of model to two cell clone distribution at two weeks, vehicle factor 1.4), the “EPC division rate, factor of increase” value stood at 22. Further, the “proliferation rate assessed by Ki67 staining (mean+/-sem)” value in assay [2] was 57.0+/−3.7%. In addition, the “orientation of mitotic spindles” value in assay [3] is given as “did not alter the orientation of mitotic spindles”.
